Results as given in patent US20080124310A1, “Bead based receptor biology” (priority 2006, published 2008).
“Also recorded” adds a separate entry of the source.

What was measured:
RAW 264.7 macrophages = assay: Phagocytic receptor assay: engulfment of IgG or ligand coated particles by RAW macrophages (foam cell model), confocal; assay type: cell-based, murine; settings: for engulfment / accumulation of IgG or ligand coated particles: RAW macrophages, confocal
Text: FIG. 25, panels A and B, illustrate respectfully a method for measurement of phagocytic receptors and a method for measuring transfection or delivery of nucleic acids and simultaneous measurement of particle engulfment using a single cell multi label confocal microscope experiment. A direct or surrogate measurement of receptor function or receptor pathway activity must be made in order establish the role of potential therapeutic target proteins in receptor function. IgG, complement, low density lipoprotein (LDL), oxidatively modified LDL (OX-LDL). Acetyl-LDL, apolipoproteins, lipoproteins, lipopolysaccharide (LPS), scavenger and other receptor functions can be measured by the accumulation of particles. The particles may themselves be comprised in part of fluorescent materials or can be directly stained with fluorescent or other colored materials or can be bound by proteins that directly or indirectly permit the attachment of fluorescent, chemiluminescent or other reporter molecules. The beads may be stained in live cells or cells fixed with formalin or paraformaldehyde or organic solvents such as alcohol and acids or by other means. The beads can be stained both before or after internalization with or without the permeabilization of the cells by detergents or organic solvents. The beads may be cells that can be lysed and imaged directly. The cells may be counter stained for the presence of specific proteins using antibodies or may express fluorescent protein constructs or contain fluorescent silencing RNA or DNA constructs or biopolymer modulating agents or drugs (FIG. 25).
We created a foam cell model and quantitative confocal assays for micro particle engulfment by macrophages. The engulfment of particles by macrophages and the generation of free radicals by leukocytes are the key physiological actions that lead to the generation of foam cells that are the center of atherosclerotic plaques. We made a cellular model system of foam cells or activated leukocytes and examine the effects of moderate levels of alcohol over time on the accumulation of particles and generation of free radicals at the site of particle accumulation compared to statins and propranolol. The model systems will consist of RAW macrophages that engulf hydrophobic polystyrene microparticles with or without coating by ligands or mixtures of ligands such as those found in cellular growth media, or free fluorescently labeled DI-LDL, OX-LDL, Acetyl LDL or other. Live cell confocal microscopy was used to quantify the effects of ethanol, compared to lovastatin and propranolol, on particle engulfment.
External particles were stained green with secondary anti rabbit FITC and then cells were permeablized and all particles stained red with secondary anti rabbit CY3. Thus engulfed particles appear red while external particles appear yellow. Beads within the cells carrying only the red signal (engulfed) and not also the green signal {red+green=yellow} (outside) were quantified for accumulation assays using both total fluorescence in the green channel and by counting individual beads in three fields on three independent cover slips for each concentration.
RAW 264.7 macrophages were cultured in alpha MEM with 5% fetal calf serum as described. The effects of lovastatin on IgG and LDL coated micro-particle engulfment at 0, 50 nM, 100 nM, 500 nM, 1 mM and higher was tested. The accumulation of free DI-LDL was quantified directly by its red fluorescence. External particles were stained green with secondary anti rabbit FITC and then cells were permeablized and all particles stained red with secondary anti rabbit CY3. Thus engulfed particles appear red while external particles appear yellow.

human neutrophils = assay: fMLP induced oxidative burst, cytochrome C reduction assay; assay type: cell-based
PI3K pathway to PIP3 = assay: PIP3 accumulation at site of IgG coated particles measured with AKT/PH-GFP; assay type: cell-based, murine
Protocol: FIG. 27 illustrates the use of PiP3 binding PH domains to screen atherosclerosis drugs in macrophages.
The PI3K pathway that converts PIP4, 5 bis-phosphate to PIP3, 4, 5, triphosphate, also called PIP3. PIP3 is measured by the Pleckstrin Homology (PH) domain of the protein kinase AKT, that has a high affinity for PIP3, fused to GFP (AKT/PH-GFP). The accumulation of phosphatidyl inositol triphosphate at the site of IgG coated particles was inhibited using wortamannin, and LY294002 dissolved into the cell experimental media.

[1] = system: PLD/PAP-1 pathway (DAG production); assay: DAG production at site of particle engulfment measured with PKC/C2-GFP; assay type: cell-based, murine
Text: FIG. 28 illustrates use of DAG binding domains to screen for atherosclerosis drugs in macrophages.

PLC = settings: PLC-delta PH domain
Text: The metabolic activation of the receptor pathway at the binding site of modified beads such as ligand coated particles may be detected, measured and quantified using green fluorescence protein (GFP) fused with binding domains specific to different biopolymers, or modified biopolymers or metabolites in including phosphorylations at the site of modified particle or bead or binding.

RAW macrophages = assay: Biochemical measurement of protein levels in fractions of drug treated RAW macrophages; assay type: cell-based, murine; settings: FIG. 67 cytosol fractions
Text: A now well established side effect of ethanol is to prevent heart attack. Thus the common effects of statins, propranolol, and ethanol must be closely linked to the central mechanism that is the most important pharmacological target of heart attack and thus atherosclerosis prevention. It remains possible that the preventative effect of statins results from their effect to inhibit particle engulfment and foam cell formation by macrophages leading to atherosclerotic plaques. We created a foam cell model and quantitative confocal assays for micro particle engulfment by macrophages. The engulfment of particles by macrophages and the generation of free radicals by leukocytes are the key physiological actions that lead to the generation of foam cells that are the center of atherosclerotic plaques. We have made a cellular model system of leukocytes or activated leukocytes or leukocytes treated over time to examine the effects drugs and biopolymer modification materials over time on the activation of receptors at the site of modified or ligand coated particles. The drugs used in this system to examine the kinetics of receptor function at modified particles may result in changes to the cell including changes in gene expression at the level of DNA transcription, RNA production, accumulation or post-transcription processing, mRNA production accumulation or expression all of which may also alter protein expression. We examined the use of these model systems with and without beads as a system to screen the effects of drugs that are known to prevent heart attack and stroke in model of leukocyte cells within atherosclerotic plaques. We observe that drugs that effect receptor associated signaling may also alter gene, RNA or ultimately protein expression in cells resulting in changes in protein levels. Proteins that change levels in response to a drug may be themselves drug target proteins.
The drugs used in the leukocyte model system to examine the kinetics of receptor function at modified particles may result in changes to the cell including changes in gene expression at the level of DNA transcription, RNA production, accumulation or post-transcription processing, mRNA production accumulation or expression all of which may also alter protein expression. We examined the use of these model systems with and without beads as a system to screen the effects of drugs that are known to effect receptor response at or near the cell surface or interior of the cells. We observe that drugs that effect receptor associated signaling may also alter gene, RNA or ultimately protein expression in cells resulting in changes in protein levels. Proteins that change levels in response to a drug may be themselves drug target proteins. […] The RAW leukocyte model foam cells system alone or in combination with the bead based biology system can be used to characterize the effects of receptor or cellular activation in terms of second messengers such as lipid and protein phosphorylation with respect to drug treatment or time in the cytosol of leukocytes (FIG. 67).

RAW cells = assay: Cellular cholesterol extraction, filipin staining; assay type: cell-based, murine; settings: brief incubation
Text: Cholesterol levels were quantified by the esterase assay, oil red- and filipin-staining.

[2] = system: sheep red blood cells phagocytosis; assay: Phagocytosis of sheep red blood cells; assay type: cell-based; settings: 15 to 30 minute incubation
[3] = in vivo; cited from earlier work
PLD pathway = settings: 500 micromolar; cited from earlier work
[4] = listed as Methyl-beta-cyclo-dextrin
[5] = listed as methyl beta cyclo dextrin

With `CC(C)NCC(O)COc1cccc2[nH]ccc12` (centres unmarked) [pindolol] as the molecule, how does the “engulfment / accumulation of IgG or ligand coated particles” value (from here on “engulfment / accumulation”) (RAW 264.7 macrophages) read?
The value was “do not inhibit particle engulfment”.

And the “fMLP induced oxidative burst (super oxide radicals)” value (shortened to “fMLP induced oxidative burst”) (human neutrophils)?
The value was “not as effective as the PAP-1 inhibitor propranolol”.

Which “engulfment / accumulation” value (RAW 264.7 macrophages) does the source give for `O=C1O/C(=C/Br)CCC1c1cccc2ccccc12` (centres unmarked) [HELSS] here?
The value was “prevent particle accumulation”.

And the “accumulation of PIP3 at the site of IgG coated particles” value (“accumulation of PIP3” below) (PI3K pathway to PIP3)?
The value was “no side effect on the PI3K pathway to PIP3”.

What about the “DAG production at the site of ligand coated bead binding” value [1] of the same molecule?
The value was “prohibit DAG production; also recorded: inhibitory effect”.

What about the “PIP2 catalysis by PLC” value (PLC) of the same molecule?
Its value is “neither EtOH, HELSS or propranolol interfere with the catalytic action of PLC”.

What about the “fMLP induced oxidative burst” value (human neutrophils) of the same molecule?
Its value is “inhibited the fMLP induced oxidative burst in a dose dependant manner”.

With `CC(C)(C)n1nc(-c2ccc(Cl)cc2)c2c(N)ncnc21` [PP2] as the molecule, how does the “engulfment / accumulation” value (RAW 264.7 macrophages) read?
Its value is “inhibited”.

For `CCCCCCCC(=O)OCC(CO)OC(=O)CCCCCCC` (centres unmarked) [DiC8], which “reversal of PLD pathway inhibitor effect on particle engulfment” value (RAW 264.7 macrophages; add-back of PLD pathway product) is on record?
Its value is “the effect is reversed by DiC8”.

For `COCCc1ccc(OCC(O)CNC(C)C)cc1` (centres unmarked) [metoprolol], which “engulfment / accumulation” value (RAW 264.7 macrophages) is on record?
Its value is “do not inhibit particle engulfment”.

What about the “fMLP induced oxidative burst” value (human neutrophils) of the same molecule?
The value was “not as effective as the PAP-1 inhibitor propranolol”.

For `C=C1[C@@H](C)[C@H]2[C@H](Cc3ccccc3)NC(=O)[C@]23[C@H](OC(C)=O)/C=C/[C@@](C)(O)C(=O)[C@@H](C)C/C=C/[C@H]3[C@@H]1O` [cytochalasin D], which “accumulation of PIP3” value (PI3K pathway to PIP3) is on record?
Its value is “inhibited”.

With `[F][Al-]([F])([F])[F]` [AlF4] as the molecule, how does the “levels of proteins after G protein stimulatory drug (FIG. 67)” value (RAW macrophages) read?
Its value is “alter levels of proteins in the membranes”.

What does the source list for `CCCCC/C=C\C/C=C\C/C=C\C/C=C\CCCC(=O)C(F)(F)F` [AACOCF3]?
DAG production at the site of ligand coated bead binding [1]: Neither MAFP nor AACOCF3 prevent DAG production; fMLP induced oxidative burst (super oxide radicals) (human neutrophils): little effect on the oxidative burst

What does the source list for `CC(C)NCC(O)COc1ccc(CC(N)=O)cc1` (centres unmarked) [atenolol]?
engulfment / accumulation of IgG or ligand coated particles (RAW 264.7 macrophages): do not inhibit particle engulfment; fMLP induced oxidative burst (super oxide radicals) (human neutrophils): not as effective as the PAP-1 inhibitor propranolol

With `CC(C)(C)NCC(O)COc1cccc2c1CC(O)C(O)C2` (centres unmarked) [nadolol] as the molecule, how does the “engulfment / accumulation” value (RAW 264.7 macrophages) read?
The value was “do not inhibit particle engulfment”.

And the “fMLP induced oxidative burst” value (human neutrophils)?
Its value is “not as effective as the PAP-1 inhibitor propranolol”.

Which results are given for methyl-beta cyclodextrin [MBCD]?
engulfment / accumulation of IgG or ligand coated particles (RAW 264.7 macrophages): no effect on particle engulfment; engulfment / accumulation of IgG or ligand coated particles (RAW 264.7 macrophages; [4]): no effect on particle accumulation; engulfment / accumulation of IgG or ligand coated particles (RAW 264.7 macrophages; [5]): little inhibitory effect; accumulation of PIP3 at the site of IgG coated particles (PI3K pathway to PIP3): did not prevent; extraction of cellular cholesterol (RAW cells; [4]): highly effective cholesterol scavenger; extraction of cellular cholesterol (RAW cells; [5]): effective to extract cholesterol; phagocytosis of sheep red blood cells [2]: no effect

With `CC(C)NCC(O)COc1cccc2ccccc12` (centres unmarked) [propranolol] as the molecule, how does the “engulfment / accumulation” value (RAW 264.7 macrophages) read?
The value was “prevent particle accumulation”.

And the “engulfment / accumulation” value (RAW 264.7 macrophages; listed as Propranolol)?
Its value is “had the largest effect in preventing the engulfment”.

What about the “accumulation of PIP3” value (PI3K pathway to PIP3) of the same molecule?
Its value is “no side effect on the PI3K pathway to PIP3”.

What about the “DAG production at the site of ligand coated bead binding” value [1] of the same molecule?
The value was “prohibit DAG production”.

What about the “PIP2 catalysis by PLC” value (PLC) of the same molecule?
The value was “neither EtOH, HELSS or propranolol interfere with the catalytic action of PLC”.

And the “fMLP induced oxidative burst” value (human neutrophils)?
Its value is “inhibited the fMLP induced oxidative burst in a dose dependant manner; also recorded: much greater effect in preventing the generation of free radicals”.

And the “decrease in rate of heart attack” value [3]?
The value was “about 35%”.

What about the “effect in in vitro experiments” value (PLD pathway) of the same molecule?
Its value is “little effect”.

What does the source list for `CCO` [ethanol]?
engulfment / accumulation of IgG or ligand coated particles (RAW 264.7 macrophages): prevent particle accumulation; accumulation of PIP3 at the site of IgG coated particles (PI3K pathway to PIP3): no side effect on the PI3K pathway to PIP3; DAG production at the site of ligand coated bead binding [1]: prohibit DAG production; PIP2 catalysis by PLC (PLC): neither EtOH, HELSS or propranolol interfere with the catalytic action of PLC; fMLP induced oxidative burst (super oxide radicals) (human neutrophils): inhibited the fMLP induced oxidative burst in a dose dependant manner

With `CCCC(=O)Nc1ccc(OCC(O)CNC(C)C)c(C(C)=O)c1` (centres unmarked) [acetbutolol] as the molecule, how does the “engulfment / accumulation” value (RAW 264.7 macrophages) read?
The value was “do not inhibit particle engulfment”.

What about the “fMLP induced oxidative burst” value (human neutrophils) of the same molecule?
The value was “not as effective as the PAP-1 inhibitor propranolol”.
